Experimental findings from a melting point compilation (Tetko et al.; mined from patent text by program, amines drawn as free bases though some values may be those of a salt) are described below.

On to `N#Cc1ccc([C@H]2CC[C@H](C=O)CC2)cc1`, for which the melting point (in general, the temperature of the solid-liquid transition) came out at 57.1 °C.
Compound `[N-]=[N+]=NS(=O)(=O)c1ccc(N2CC(CO)OC2=O)cc1` (stereo unspecified) registered a melting point of 108 to 110 °C.
`CCOc1cc2nc[nH]c(=O)c2cc1OCC` had a melting point of 255 to 257 °C.
Consider `O=C(O)CCC(=O)N1CCN2C(=O)OC(c3ccccc3)(c3ccccc3)C2C1` (stereo unspecified), for which the melting point is 158 to 164 °C.
On to `CN(C(=O)OC(C)(C)C)[C@H](Cc1ccc(Cl)c(Cl)c1)[C@H](O)CC(=O)N[C@@H]1CCCCNC1=O`, for which the melting point worked out at 187 °C.
As to `CC1(O)CC(C)(C)c2ccc(Oc3ccc([N+](=O)[O-])cc3)cc2O1` (stereo unspecified), the melting point lay within 159 to 160 °C.
To `N#Cc1cc(F)c(NN)cc1F` belongs 158 °C; to `COc1ccc(C2(c3ccc(O)c(C)c3)c3ccccc3-c3ccccc32)cc1`, 186 to 188 °C; to `COc1ccc(S(=O)(=O)n2c(Cl)nc3c2c(=O)n(CC2CC2)c(=O)n3CC2CC2)cc1`, 118 °C.
On to `Cc1nc(-c2ccc(Cl)cc2)n[nH]1`, for which the melting point is 173 to 175 °C.
As for `COc1ccccc1N1CCN(C(=O)[C@@H](Cc2ccncc2)NC(=O)OC(C)(C)C)CC1`, the melting point is 105 °C.
For `Cc1nc(Cl)c(C#N)nc1C`, the melting point lay in the range of 83 to 85 °C.
For the compound `C=CCn1c(=O)c2cnc(Nc3ccc(N4CCN(C)CC4)cc3)nc2n(C(C)C)c1=O`, the melting point was 176 to 177 °C.
`COc1ccc(C2CCN(C(=O)Nc3ccc4cc(CN5CCCC5)cnc4c3)CC2)cc1` gave a melting point of 241 to 243 °C.
Regarding `CCOC(=O)C(=CNC1CC1)C(=O)c1c(F)c(F)c(F)c(F)c1F`, the melting point was 85 to 86 °C.
As to `O=c1cc(-c2ccccc2)oc2cccc(OCCCCCCI)c12`, the melting point is 166 to 168 °C.
`COc1ccc(C2(O)CCCCC2)cn1` yielded a melting point of 74 to 75 °C.
For the compound `N#Cc1ccc2c(c1)S(=O)(=O)c1ccccc1C=C2`, the melting point fell in the range of 229 to 231 °C.
`CCOC(=O)c1nc2scc(CNC(=O)c3ccc(C(=O)OC)cc3)c2c(=O)[nH]1` displayed a melting point of 236 °C.
In turn, `CCCCN1C=CC(N2CCC(F)(c3ccccc3)C(Cl)C2=O)=CC1` (stereo unspecified) registered a melting point of 137 °C.
As to `CN(c1cccc2cc(C3=NCC(CC(N)=O)S3)[nH]c12)S(=O)(=O)c1cccnc1` (stereo unspecified), the melting point lay in the range of 185 to 186 °C.
To `CN(C)CCNC(=O)Cn1c(-c2ccc(Br)cc2)nc2cccnc21` belongs 195 to 197 °C; to `Cn1ccc(N)cc1=O`, 200 to 202 °C.
Consider `CCCc1c(OCCCCCCc2cccc(OCCCC(C)(C)C(=O)O)c2CCC(=O)O)ccc2c1OCCC2=O`, for which the melting point was in the range of 85 to 87 °C.
Under `c1ccc2c(c1)CCC(n1ccnc1)C2` (stereo unspecified) stands 93 to 95 °C.
Compound `O=C(O)Cc1cccc2c(-c3ccc(Br)cc3)nccc12` registered a melting point of 230 to 232 °C.
`CSC1=NC(=O)C(=Cc2cc(C(C)(C)C)c(O)c(C(C)(C)C)c2)N1C` showed a melting point of 177 to 179 °C.
The compound `CC1(C)Cc2ccc(C#N)cc2N(C(=O)Nc2ccccc2)C1` displayed a melting point of 170 to 171 °C.
Under `FC(F)(F)Oc1ccc(C2NCCc3ccccc32)cc1` (stereo unspecified) stands 56.6 to 57.1 °C.
The compound `O=C1C(Cc2ccccc2)NC(=S)N1c1nc2ccc(F)cc2s1` (stereo unspecified) came in with a melting point of 223 to 224 °C.
`Nc1cc(N2CC(c3ccccc3)OC2=O)ccn1` (stereo unspecified) had a melting point of 155 to 156 °C.
Turning to `O=C(O)C1=COc2c(C(=O)c3cccs3)cc(Cl)c(Cl)c2O1`, the melting point lay within 233 to 236 °C.
Consider `CC(=O)SCC1(C)C(=O)N2CCCC(C(=O)OC(C)(C)C)N2C1=O` (stereo unspecified), for which the melting point was 78 to 79 °C.
On to `N#CC(=Cc1ccc(F)cc1[N+](=O)[O-])C(N)=O`, for which the melting point is 278 to 279 °C.
Consider `CS(=O)(=O)N1CCN(c2ccc(NC(=O)c3ccccc3-c3ccc(C(F)(F)F)cc3)cc2)CC1`, for which the melting point lay within 254 to 256 °C.
`CCC(Cc1c(C)cc(C(C)(C)C)c(O)c1C)(C(=O)OC1CC(C)(C)NC(C)(C)C1)C(=O)OC1CC(C)(C)NC(C)(C)C1` came in with a melting point of 175 °C.
